Calls of active or inactive are those of the source. No cut-off for these calls is given here.
What was measured:
[1] = system: Colon 26; assay: Drug uptake in mouse Colon 26 cells expressing p-glycoprotein at 2 x 10^-7 M after 15 mins by flow cytometry in absence of verapamil; type: ADME, cell-based; conditions: colon 26, 0.25 h, 0.2 µM
[2] = system: Colon 26; assay: Photo-toxicity in mouse Colon 26 cells assessed as cell viability up to 5 Jcm'-2 of continuous illumination with 630 +/- 2 nm laser light incubated for 48 hrs by sulforhodamine B assay; type: functional, cell-based; conditions: Colon 26, 48 h
[3] = Ratio of LD50 for dark toxicity in mouse Colon 26 cells to EC50 for photo-toxicity in mouse Colon 26 cells at 1 Jcm'-2 of continuous illumination with 630 +/- 2 nm laser light; type: cell-based; conditions: read-out: Ratio LD50/EC50
[4] = system: Colon 26; assay: Photo-toxicity in mouse Colon 26 cells assessed as cell viability at 1 Jcm'-2 of continuous illumination with 630 +/- 2 nm laser light incubated for 48 hrs by sulforhodamine B assay; type: functional, cell-based; conditions: for EC50: Colon 26, 48 h
[5] = n-Octanol-water partition coefficient, log P of the compound at pH 7.4 by shake flask method; type: physicochemical
[6] = Cellular uptake in mitochondria of mouse Colon 26 cells expressing p-glycoprotein using MitoTracker Green after 15 mins by flow cytometry; type: ADME; conditions: colon 26, 0.25 h
[7] = system: Colon 26; assay: Photo-toxicity in mouse Colon 26 cells assessed as cell viability at 0.5 Jcm'-2 of continuous illumination with 630 +/- 2 nm laser light incubated for 48 hrs by sulforhodamine B assay; type: functional, cell-based; conditions: for EC50: Colon 26, 48 h
[8] = system: Colon 26; assay: Drug uptake in mouse Colon 26 cells expressing p-glycoprotein at 2 x 10^-7 M after 15 mins by flow cytometry in presence of 1 x 10^-4 M of verapamil; type: ADME, cell-based; conditions: colon 26, 0.25 h, 0.2 µM
[9] = Dark toxicity in mouse Colon 26 cells expressing p-glycoprotein assessed as cell viability incubated for 1 hr followed by incubated for 48 hrs in fresh medium by sulforhodamine B assay; type: cell-based; conditions: read-out: LD50
[10] = Ratio of LD50 for dark toxicity in mouse Colon 26 cells to EC50 for photo-toxicity in mouse Colon 26 cells at 15 Jcm'-2 of continuous illumination with 630 +/- 2 nm laser light; type: cell-based; conditions: read-out: Ratio LD50/EC50

| Compound | Drug uptake [1] | EC50 [2] | selectivity ratio [3] | EC50 [4] | logD [5] | Drug uptake [6] | EC50 [7] | fold change (FC) [8] | CC50 at 1 h [9] | selectivity ratio [10] | Activity [4] | Activity [7] |
| --- | --- | --- | --- | --- | --- | --- | --- | --- | --- | --- | --- | --- |
| S=C(c1ccc(C2=c3cc4c5c(c3[Se]c3c2cc2c6c3CCCN6CCC2)CCC[N+]=5CCC4)s1)N1CCCCC1.[Cl-] | Active | 50 nM | 53 | 29 nM | 4.1 | Active | 56 nM | 2.9 | 1530 nM |  |  |  |
| O=C(c1ccc(C2=c3cc4c5c(c3[Se]c3c2cc2c6c3CCCN6CCC2)CCC[N+]=5CCC4)s1)N1CCCCC1.[Cl-] | Active | 50 nM | 58 | 38.8 nM | 3.71 | Active | 79 nM | 7.6 | 2240 nM |  |  |  |
| CN(C)c1ccc(-c2cc(-c3ccc(N)cc3)[se+]c(-c3ccc(N)cc3)c2)cc1 |  |  |  |  |  |  |  |  |  | 3.8 |  |  |
| CN(C)c1ccc(-c2cc(-c3ccccc3)[se+]c(-c3ccc(N)cc3)c2)cc1 |  |  |  |  |  |  |  |  | 2600 nM | 13 |  |  |
| CN(C)c1ccc(-c2cc(-c3ccccc3)[s+]c(-c3ccc(N)cc3)c2)cc1 |  |  |  |  |  |  |  |  | 70 nM |  | inactive | inactive |
